Results as given in US8138159B2, “Composition for inhibiting function of human Flt3” (Takara Bio Inc., priority 2003, dated 2012).
pIC50: −log10 of the molar value.

Legend:
Format in all cases: cell-based, human
[1] = system: Flt3 mRNA highly expressing cells; assay: cell growth activity, Premix WST1 (Example 2), stated for highly expressing cells together; conditions: regardless of presence or absence of ITD mutation, read-out: IC50 (50% inhibition concentration) of growth
[2] = system: MV4-11 (ITD mutation) cells; assay: cell growth with siRNA alone or siRNA cocktail, WST-1 (Example 7); conditions: final concentration 1.2 μM, electroporation, 72 hours, n=6 mean
Method: As the composition of the present invention, a cocktail containing the synthesized siRNA1, 2 and 3, or siRNA3 alone, was examined for its growth inhibitory activity on MV4-11 (ITD mutation) cells. The synthesized siRNA1, 2 and 3 used were the same as in item (1) of Example 1 above.
A medium for MV4-11 cells used was the same as in item (2) of above Example 1, and the cells were cultured at 37° C. for 24 hours in an RPMI 1640 medium (manufactured by TAKARA BIO INC.) supplemented with 10% by volume fetal bovine serum (FBS) (referred to hereinafter as the culture medium) in the presence of 5% by volume CO2. Then, transfection of the cells with the synthesized siRNA3 was carried out in the following manner. […]
The cells added in an amount of 100 μl/well on the 96-well plate prepared in item (2) above were cultured at 37° C. in the presence of 5% by volume CO2. Seventy-two hours after the culture was initiated, the growth activity of the cells was determined using Premix WST-1 reagent (manufactured by TAKARA BIO INC.) according to a manufacturer's protocol. Each experiment was carried out with n=6, and the mean was determined. The relative growth ratio (%) as compared with the growth ability of the cells transfected with the control siRNA was determined.

[3] = system: MV4-11 (ITD mutation) cells; assay: growth inhibition by siRNA3 in combination with kinase inhibitor AG1295, WST-1 (Example 4); conditions: siRNA3 alone, 1.2 μM at electroporation, 0 μM AG1295, 72 hours
Method: The growth inhibitory activity of treatment with a combination of the composition (synthesized siRNA3) of the present invention and a kinase inhibitor on MV4-11 (ITD mutation) cells was examined. The synthesized siRNA3 used was the same as in item (1) of Example 1 above. As the kinase inhibitor, AG1295 (manufactured by CALBIOCHEM) having high specificity to ITD mutation cells was used.
In the same manner as in item (2) of Example 1 above, MV4-11 cells were cultured at 37° C. for 24 hours in a medium obtained by supplementing 10% by volume fetal bovine serum (FBS) to an RPMI 1640 medium (manufactured by TAKARA BIO INC.) (referred to hereinafter as a culture medium) in the presence of 5% by volume CO2. Then, the MV4-11 cells (1×10^6 cells/ml) suspended in Opti-MEM (trade name, manufactured by Invitrogen) were transferred to a cuvette (manufactured by BIO RAD; gap of 4 mm), and siRNA3 was added to the cuvette so as to give a final concentration of 1.2 μM. Then, the cuvette was set in Gene Pulser Xcell (trade name, manufactured by BIO RAD) and thereafter pulsed with electric field intensity of 650 V/cm for 25 msec. Then, the suspension of the cells in the cuvette was added to, and suspended in, a 4-fold excess volume of the culture medium and dispensed onto a 96-well plate so as to give an amount of 100 μl/well. […]
4 mM AG1295 (dissolved in DMSO) was diluted with the above-mentioned culture medium to prepare AG1295 dilutions at a concentration of 10 μM, 6 μM and 0 μM (0.25% by volume DMSO) and added so as to give an amount of 100 μl/well to the 96-well plate prepared in step (2) above and cultured at 37° C. in the presence of 5% by volume CO2. Seventy-two hours after the culture was initiated, the growth activity of the cells was determined using Premix WST-1 reagent (trade name, manufactured by TAKARA BIO INC.) according to a manufacturer's protocol. Each experiment was carried out with n=6, and the mean was determined. The relative growth ratio (%) to the growth ability of the cells transfected with the control siRNA/0 μM AG1295 was determined. […]

Q: How did the pIC50 [1] turn out when “siRNA3: siRNA to juxtamembrane region (Flt3/JMD region) (target SEQ ID NO: 7); sense SEQ ID NO: 8, antisense SEQ ID NO: 9 (sense UAUGAAUAUGAUCUCAAAUTT; antisense AUUUGAGAUCAUAUUCAUATT; chemistry not given here)” was run?
A: 8.00

Q: What about the “relative growth ratio (%) as compared with the cells transfected with the control siRNA (growth inhibition to)” value [2] of the same substance?
A: 46.5%

Q: What about the “growth inhibition as compared with the cells transfected with the control siRNA/0 μM AG1295” value [3] of the same substance?
A: 83.7%
